The values that follow come from US20220280644A1, “"TRPswitch" - A STEP FUNCTION CHEMO-OPTOGENETIC LIGAND” (UNIVERSITY OF UTAH RESEARCH FOUNDATION, priority 2019, published 2022).

The subject of data set [1] is wild-type zebrafish larvae. The data set is described as follows: Behavioral assay: light-induced motion response of wild-type larvae. To be noted: for light-induced motion response (in vivo activity): 3 dpf wild-type larvae, 1 s flashes WL1-WL4. The data set is classed as in vivo, Zebrafish (Danio rerio). As to the method: A total of 1,000 compounds were selected from the ChemBridge Corp. catalog. Compounds were dissolved in DMSO at a stock concentration of 1 μg/μL (˜1.5 mM). The library was screened at a 1:100 dilution in E3 solution for a final concentration of ˜15 μM. Negative controls were treated with an equal volume of DMSO. Groups of 3 larvae at 3 days post fertilization (dpf) were distributed into the wells of 96-well clear bottom black microplates (07-200-567; Fisher Scientific) in 150 μL E3 before the addition of small molecules. Stock solutions of compounds were added directly to zebrafish in the wells of a 96 well plate (Corning 3631), mixed, and allowed to incubate for 1 h in the dark at 28.5° C. prior to behavioral evaluation in the behavioral assay. Ordering information: 1 (5533696; ChemBridge); 3 (5538408; ChemBridge).
Larvae in each of the wells were exposed to four 1 second flashes of light stimulus in the following order: 450-500 nm (WL1), 415-455 nm (WL2), 352-402 nm (WL3), white light (WL4), with a 5 second inter-stimulus interval. Digital video recording was performed for 5 seconds before the first light stimuli and continued throughout the stimulation sequence. Band pass filters (Semrock FF02-475/50, FF02-435/40, FF01-377/50) were used to restrict the excitation light to the indicated wavelengths. […] 290 frames of digital video were recorded per well at 10 FPS using an EMCCD camera (C9100; Hamamatsu) mounted on an inverted compound microscope (AxioObserver A1; Zeiss) with a NA 0.03 1.25× objective and a barrier with a 0.7 mm diameter opening to restrict light scattering to the sample. MetaMorph software (Molecular Devices) was used to control the execution of TTL signals and camera capture using the built-in stream acquisition with trigger function. Each video was saved for review. Light stimuli were generated with an ozone free 300-Watt xenon bulb housed in a Lambda LS illuminator (Sutter Instruments). A dichroic mirror (T510LPXRXT; Chroma) was used for appropriate excitation of samples and bright field acquisition. Schott longpass absorption glass (RG610; Chroma) was added in the transmitted light path to reduce unwanted excitation to the well and to provide sufficient light for video recording. All behavioral experiments were conducted at room temperature. […]
To analyze digital video recordings, custom MetaMorph software scripts were used to automatically threshold the video to identify the area of larvae in each frame. Threshold images of the frames after each light activation event were overlaid to calculate a new combined threshold area. The motion index was calculated as the percentage change between the threshold area in the frame right before light activation and the new combined threshold area. This motion index correlates with the overall amount of motion in the well.

A short description of data set [2]: Photostationary state (PSS) determination. To be noted: for 365 nm PSS / 420 nm PSS / 495 nm PSS: estimated, UV/Vis spectroscopy in DMSO. The data set is classed as physicochemical. From the text:
[…] In the latter case, the pure Z isomer spectrum was estimated using methods described in previous publications.

Data set [3] has as its system zebrafish Trpa1b. Briefly: Whole-cell patch-clamp of HEK293T cells expressing zebrafish Trpa1b. Format: cell-based. The protocol:
Immortalized HEK293T cells or human colonic fibroblast cells (CCD-18Co; ATCC) were used. HEK293T cells were plated on […] cover slips and transiently transfected with 10 μg of Trpa1b plasmid (pCMV-zTrpa1b-FLAG) (SEQ ID NO:3) and 5 μg of mNeonGreen cDNA (Allele Biotechnology), then grown in a 6 cm plate for 24-48 h. CCD-18Co were cultured in Eagle's minimal essential medium with 10% FBS, 1× penicillin and streptomycin. CCD-18Co cells were plated on 12 mm cover slips and transiently transfected with 5 μg of zTrpa1b plasmid (pCMV-zTrpa1b-FLAG) together with 5 μg of mNeonGreen cDNA (Allele Biotechnology), then grown in a […] plate for 48-72 h. After this time, the cover slips were transferred to a recording chamber containing an extracellular solution composed of 145 mM sodium gluconate, 4 mM KCl, 3 mM MgCl2, 10 mM D-glucose, 10 mM HEPES; pH 7.4 adjusted with NaOH. The internal solution contained 122 mM cesium methane sulfonate, 1.8 mM MgCl2, 9 mM EGTA, 14 mM creatine phosphate (sodium salt), 4 mM Mg-ATP, 0.3 mM Na-GTP, 10 mM HEPES, pH 7.2 adjusted with CsOH. Borosilicate glass pipettes with a resistance of 3-5 MO were used. Whole cell currents were measured on an Axopatch 200B amplifier (Molecular De-vices) under the control of pClamp software. Signals were digitized through a Digidata1550B interface (Molecular Devices). Currents were filtered at 5 kHz (lowpass, Bessel) and sampled at 10 kHz prior to analysis with Clampfit software (Molecular Devices). All the plots and statistical tests were performed on Excel (Microsoft corp.). Basal Trpa1b whole cell currents were measured with a ramp protocol (˜100 to +100 mV, at a holding potential of 0 mV). Photoactive compounds were perfused into the recording chamber and a fluorescent light generated by mercury vapor short arc (U-HGLGPS, OLYMPUS) filtered through an ET-ECFP 434/17 nm filter and through a ET-mCherry 560 nm filter (Chroma Technology) was switched “on” and “off” for 10 s. All experiments were performed at room temperature. The p values were calculated using a two-tailed, paired Student's t-test.
(In general: In patch-clamp work, channel activity is measured electrically.)

Data set [4] concerns Trpa1b. Briefly: Heartbeat interruption in larvae expressing Trpa1b in cardiomyocytes. The data set is classed as in vivo, zebrafish. As to conditions: 20 μM. The protocol:
Heartbeat interruption experiments were performed in vivo on 2 dpf Tg(cm/c2:Trpa1b-2A-EGFP) larvae in a Trpa1b^−/− background. Larvae were pretreated with 20 μM of TRPswitch-A or TRPswitch-B in E3 at a final concentration of 1% DMSO for 1 h in the dark at 28.5° C. before experimental manipulation. Immediately prior to the onset of experiments, E3 solution was replaced with 0.2 mg/mL tricaine (Sigma, A5040) in E3 for anesthetizing the larvae. Violet light (352-402 nm) and green light (500-600 nm) were used for E to Z and Z to E isomerization, respectively. Violet and green light excitation were achieved using a band pass filter FF01-377/50 and an et500lp long pass barrier filter, respectively, together with a t600plxxr dichroic mirror and a 300-Watt xenon bulb light source (Sutter Instrument). Experiments were performed using a NA 0.6 40× air objective at room temperature. The zebrafish heart in the whole field of view was illuminated with 1 s violet light followed by various lengths of green light as indicated. Ventricle width measurement was performed using the ImageJ ‘measure’ function on the widest outer ventricle width every 100 ms.

Data set [5] can be described thus: UV-Vis absorbance, E/Z isomerization with violet and green light. Format: physicochemical. To be noted: UV-Vis absorbance in DMSO. The protocol:
Compounds were dissolved in DMSO at 250 μM and 260 μM for TRPswitch-A and TRPswitch-B, respectively and UV-Vis absorbance was measured using a NanoDrop 1000 (Thermo Scientific).

For data set [6], the target named is T1, endogenous human TRPA1 (Homo sapiens, UniProt O75762).
T1 construct: human colonic fibroblast cells, CCD-18Co, which express human TRPA1 endogenously; endogenous in cells; host or cells: CCD-18Co (ATCC), untransfected
The data set is described as follows: Whole cell current in untransfected CCD-18Co cells. The data set is classed as cell-based. To be noted: untransfected CCD-18Co. As to the method: Immortalized HEK293T cells or human colonic fibroblast cells (CCD-18Co; ATCC) were used. HEK293T cells were plated on […] cover slips and transiently transfected with 10 μg of Trpa1b plasmid (pCMV-zTrpa1b-FLAG) (SEQ ID NO:3) and 5 μg of mNeonGreen cDNA (Allele Biotechnology), then grown in a 6 cm plate for 24-48 h. CCD-18Co were cultured in Eagle's minimal essential medium with 10% FBS, 1× penicillin and streptomycin. CCD-18Co cells were plated on 12 mm cover slips and transiently transfected with 5 μg of zTrpa1b plasmid (pCMV-zTrpa1b-FLAG) together with 5 μg of mNeonGreen cDNA (Allele Biotechnology), then grown in a […] plate for 48-72 h. After this time, the cover slips were transferred to a recording chamber containing an extracellular solution composed of 145 mM sodium gluconate, 4 mM KCl, 3 mM MgCl2, 10 mM D-glucose, 10 mM HEPES; pH 7.4 adjusted with NaOH. The internal solution contained 122 mM cesium methane sulfonate, 1.8 mM MgCl2, 9 mM EGTA, 14 mM creatine phosphate (sodium salt), 4 mM Mg-ATP, 0.3 mM Na-GTP, 10 mM HEPES, pH 7.2 adjusted with CsOH. […] Whole cell currents were measured on an Axopatch 200B amplifier (Molecular De-vices) under the control of pClamp software. […] Basal Trpa1b whole cell currents were measured with a ramp protocol (˜100 to +100 mV, at a holding potential of 0 mV). […] The p values were calculated using a two-tailed, paired Student's t-test.

Setting [7] is: UV-Vis spectroscopy in 30% water:DMSO, extrapolated pure Z spectrum, listed as TRPswitch-A.

SMILES strings stand for the structures.

T1 sequence (O75762 whole entry): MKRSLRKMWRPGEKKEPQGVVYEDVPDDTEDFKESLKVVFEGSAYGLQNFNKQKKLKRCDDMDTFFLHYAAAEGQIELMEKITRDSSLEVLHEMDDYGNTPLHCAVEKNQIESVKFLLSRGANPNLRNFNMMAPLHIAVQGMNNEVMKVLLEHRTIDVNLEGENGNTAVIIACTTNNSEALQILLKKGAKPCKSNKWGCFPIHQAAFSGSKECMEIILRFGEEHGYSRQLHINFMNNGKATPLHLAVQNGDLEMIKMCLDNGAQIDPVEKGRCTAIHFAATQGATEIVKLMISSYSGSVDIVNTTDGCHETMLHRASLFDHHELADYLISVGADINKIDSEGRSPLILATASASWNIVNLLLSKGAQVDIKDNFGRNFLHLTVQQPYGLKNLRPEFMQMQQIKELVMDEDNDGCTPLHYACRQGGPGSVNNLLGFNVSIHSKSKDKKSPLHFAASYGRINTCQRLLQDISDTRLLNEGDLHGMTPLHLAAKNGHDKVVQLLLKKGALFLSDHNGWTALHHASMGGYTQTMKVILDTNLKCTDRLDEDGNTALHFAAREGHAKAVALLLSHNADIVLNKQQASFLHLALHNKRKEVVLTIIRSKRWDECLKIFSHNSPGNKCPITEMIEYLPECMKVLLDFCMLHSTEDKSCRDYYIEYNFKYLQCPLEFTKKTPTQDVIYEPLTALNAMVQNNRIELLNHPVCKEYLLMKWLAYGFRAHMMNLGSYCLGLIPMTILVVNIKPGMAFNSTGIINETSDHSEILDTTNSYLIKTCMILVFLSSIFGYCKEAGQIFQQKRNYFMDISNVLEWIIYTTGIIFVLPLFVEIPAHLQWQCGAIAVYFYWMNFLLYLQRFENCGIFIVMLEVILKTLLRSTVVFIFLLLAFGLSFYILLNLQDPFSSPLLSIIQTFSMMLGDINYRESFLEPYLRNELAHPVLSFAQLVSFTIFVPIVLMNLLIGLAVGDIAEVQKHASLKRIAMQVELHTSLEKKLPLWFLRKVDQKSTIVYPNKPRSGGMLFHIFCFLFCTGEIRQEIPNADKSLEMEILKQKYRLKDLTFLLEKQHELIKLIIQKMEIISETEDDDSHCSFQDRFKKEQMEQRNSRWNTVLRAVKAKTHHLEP

In the case of `O=C(Nc1ccc(/N=N/c2ccc([N+](=O)[O-])cc2)c(NC(=O)c2cccs2)c1)c1cccs1` [Compound 7, (E)-N,N′-(4-((4-nitrophenyl)diazenyl)-1,3-phenylene)bis(thiophene-2-carboxamide)], the “light-induced motion response (in vivo activity)” value (from here on “light-induced motion response”) in data set [1] was “far less active”. Further, in data set [2], the “365 nm PSS” value is on record as 69% E, the “420 nm PSS” value was 46% E and the “495 nm PSS” value is recorded as 70% E.
As for `N#Cc1ccc(/N=N/c2ccc(NC(=O)c3cccs3)cc2NC(=O)c2cccs2)cc1` [Compound 5, (E)-N,N′-(4-((4-cyanophenyl)diazenyl)-1,3-phenylene)bis(thiophene-2-carboxamide)], the “light-induced motion response” value in data set [1] is “far less active”. In data set [2], the “365 nm PSS” value is 41% E, the “420 nm PSS” value is reported as 30% E and the “495 nm PSS” value is listed as 61% E.
Turning to `N#Cc1ccc(/N=N/c2ccc(NC(=O)c3ccco3)cc2NC(=O)c2ccco2)cc1` [Compound 4, (E)-N,N′-(4-((4-cyanophenyl)diazenyl)-1,3-phenylene)bis(furan-2-carboxamide)], in data set [1], the “light-induced motion response” value is “far less active”. Besides, in data set [2], the “365 nm PSS” value was 47% E, the “420 nm PSS” value is 32% E and the “495 nm PSS” value is 61% E.
As for `O=C(Nc1ccc(/N=N/c2ccccc2)c(NC(=O)c2ccco2)c1)c1ccco1` [Compound 1, (E)-N,N′-(4-(phenyldiazenyl)-1,3-phenylene)bis(furan-2-carboxamide)], the “light-induced motion response” value in data set [1] is reported as “light-induced motion response across multiple wavelengths”. The “bandwidth with the most activity” value in data set [1] (light-induced motion response) is listed as 415-455 nm. In addition, the “Trpa1b current upon violet light stimulation” value in data set [3] (10 μM, compared to baseline) was “high amplitude currents”. Moreover, the “Trpa1b photocurrent upon subsequent green light stimulation” value in data set [3] (10 μM, same cell) was “recovered to its baseline current magnitude”. In data set [3] (+100 mV), the “current density fold increment after subsequent pulse of green light” value is reported as 1.15±0.17 fold and the “current density fold increment upon violet light illumination” value is recorded as 2.36±0.50 fold. Besides, in data set [3] (−100 mV), the “current density fold increment after subsequent pulse of green light” value was found to be 3.71±1.31 fold and the “current density fold increment upon violet light illumination” value came to 4.35±1.44 fold. In addition, the “ventricle heartbeat after 1 s violet light” value in data set [4] (1 h pre-incubation) is reported as “could be stopped”. In data set [4] (after violet light), the “ventricular rhythm after 1 s green light” value was “re-stored”. In data set [2] (1H NMR in DMSO-d6), the “365 nm PSS (E-Z)” value was 79% Z, the “420 nm PSS (E-Z)” value turned out to be 53% Z and the “495 nm PSS (Z-E)” value came to 71% E. Besides, in data set [2] (setting [7]), the “Estimated 365 nm PSS (E-Z)” value was 86% Z and the “Estimated 495 nm PSS (Z-E)” value is given as 73% E. Besides, the “E/Z photoswitching with violet and green light” value in data set [5] was “incomplete”.
As to `O=C(Nc1ccc(/N=N/c2ccccc2)c(NC(=O)c2cccs2)c1)c1cccs1` [Compound 3, (E)-N,N′-(4-(phenyldiazenyl)-1,3-phenylene)bis(thiophene-2-carboxamide)], the “light-induced motion response” value in data set [1] is given as “slightly lower photoresponse”. For the same compound, in data set [2], the “365 nm PSS” value is reported as 22% E, the “420 nm PSS” value is listed as 38% E and the “495 nm PSS” value is 76% E.
For `O=C(Nc1ccc(/N=N/c2ccc([N+](=O)[O-])cc2)c(NC(=O)c2ccco2)c1)c1ccco1` [Compound 6, (E)-N,N′-(4-((4-nitrophenyl)diazenyl)-1,3-phenylene)bis(furan-2-carboxamide)], the “light-induced motion response” value in data set [1] is “far less active”. For the same compound, in data set [2], the “365 nm PSS” value is on record as 66% E, the “420 nm PSS” value is recorded as 42% E and the “495 nm PSS” value was 64% E.
On the same counts, the results for `O=C(Nc1ccccc1/N=N/c1ccccc1)c1ccco1` [Compound 2, (E)-N-(2-(phenyldiazenyl)phenyl)furan-2-carboxamide] are “reduced activity”, 13% E, 56% E and 79% E.
Take `C=CCN=C=S` [AITC, allyl isothiocyanate, reference compound]: the “agonist-activated Trpa1b currents” value in data set [3] (positive control) is recorded as “activated currents”. Further, in data set [6], the “response of human TRPA1 current” value is “responded”.
